pIC50: −log10 of the molar value.
What was measured:
[1] = Pharmacokinetic determination in mice after gavage administration (P.O.); assay type: in vivo; conditions: male, CD-1, mouse, po, 10 mg/kg, plasma
Experimental: Mice and rats were used as test animals to study the pharmacokinetic behavior of the compounds of the present disclosure in plasma following gavage administration (P.O.). Plasma samples were collected at specific time points, compound concentrations in plasma were detected by LC-MS/MS, and pharmacokinetic parameters were calculated to evaluate the pharmacokinetics.
• Mice, CD-1, male, Zhejiang Vital River Laboratory Animal Technology Co., Ltd. • Rats, Sprague-Dawley, male, Zhejiang Vital River Laboratory Animal Technology Co., Ltd., Shanghai Jihui Experimental Animal Breeding Co., Ltd.
After administration to mice and rats, venous blood samples of 0.03 mL and 0.2 mL, respectively, were collected at 0.0833 (IV), 0.25, 0.5, 1, 2, 4, 8, and 24 hours and placed in EDTA-K2 test tubes. Plasma was separated by centrifugation at 4 °C, 4000 g for 5 minutes and stored at -80 °C.
• 1) 10 µL of plasma sample was precipitated by adding 200 µL of acetonitrile, vortex mixed, and centrifuged for 15 minutes. • 2) The processed supernatant was diluted with water and analyzed by LC/MS/MS to determine the concentration of the test compound.
Pharmacokinetic parameters were calculated using WinNonlin 8.3. The pharmacokinetic parameters for mice P.O. are shown in Table 4, and for rats P.O. in Table 5. Cmax represents the maximum plasma concentration, T1/2 represents the terminal elimination half-life, MRTInf represents the mean residence time, and AUC represents the area under the plasma concentration-time curve. Table 4 Pharmacokinetic Parameters of the Compounds of the Present Disclosure in Mice

human CYP11B2 enzyme = biological target: T1, human CYP11B2 enzyme (Homo sapiens, UniProt P19099); assay: Enzyme inhibition activity assay in G402 cells stably expressing human CYP11B2 (aldosterone production from 11-DOC, LC/MS); assay type: cell-based; conditions: 1 µM 11-DOC, 16 hours, aldosterone detected
T1 construct: the ORF of human CYP11B1 or CYP11B2 were transfected into G402 cells; expressed in transfected cells
T1 sequence (P19099 25-503): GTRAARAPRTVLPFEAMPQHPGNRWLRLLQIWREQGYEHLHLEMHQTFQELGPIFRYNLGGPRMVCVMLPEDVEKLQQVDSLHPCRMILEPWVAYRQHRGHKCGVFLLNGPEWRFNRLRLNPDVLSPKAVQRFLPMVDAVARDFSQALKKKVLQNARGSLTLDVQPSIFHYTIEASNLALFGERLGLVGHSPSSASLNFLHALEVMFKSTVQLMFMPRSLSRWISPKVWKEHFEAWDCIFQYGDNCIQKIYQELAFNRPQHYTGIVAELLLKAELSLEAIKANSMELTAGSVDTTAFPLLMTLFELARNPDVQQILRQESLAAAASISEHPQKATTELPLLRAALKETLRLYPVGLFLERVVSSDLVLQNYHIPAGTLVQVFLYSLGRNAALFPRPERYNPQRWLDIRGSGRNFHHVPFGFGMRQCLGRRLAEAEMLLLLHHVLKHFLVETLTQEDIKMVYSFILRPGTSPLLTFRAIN
From the text: (§1) G402 cells (ATCC, CRL 1440) are epithelioid cells isolated from the kidney of a patient with renal failure and are a type of leiomyoblastoma. For the screening of highly specific CYP11B2 inhibitors, we specifically used G402 cell lines stably expressing human CYP11B2 enzyme or human CYP11B1 enzyme for experimental development.
(§2) Construction of Stably Transfected Cell Lines: Expression plasmids containing suitable promoters, suitable drug resistance markers, and the ORF of human CYP11B1 or CYP11B2 were transfected into G402 cells using standard techniques. The cells were then screened using the specific puromycin resistance marker. Monoclonal cells stably expressing human CYP11B2 were selected for expansion, and 11-deoxycorticosterone (11-DOC) was used as the specific substrate to evaluate enzyme activity based on aldosterone production. Monoclonal cells stably expressing human CYP11B1 were selected for expansion, and 11-deoxycortisol (11-DC) was used as the specific substrate, with cortisol production as the detection target for specific enzyme activity evaluation. The G402 cell lines stably expressing CYP11B1/CYP11B2 were cultured at 37 °C, 5% CO2, 95% air in complete medium (McCoy's 5A + 10% FBS + 1% PS + 0.5 µg/mL puromycin).
(§3) Enzyme Inhibition Activity Assay: CYP11B1 G402/CYP11B2 G402 cells were spread out flatly in cell culture plates. After 24 hours, the medium was changed to an enzyme testing system (DMEM/F12 + 2.5% charcoal-stripped FCS). Small molecule inhibitors at various concentrations were added. After 1 hour, appropriate concentrations of specific substrates (1 µM 11-DOC / 1 µM 11-DC) were added and co-incubated with the cells for 16 hours. Cells were then collected, and specific products were detected using LC/MS methods with an AB SCIEX TRIPLE QUAD 5500+, CTO-40S instrument (CYP11B2 enzyme detecting aldosterone; CYP11B1 enzyme detecting cortisol).
(§4) The IC50 values of the compounds were determined based on the G402 testing system. The dose-dependent inhibition of enzyme activity was calculated by plotting the added inhibitor concentration (x-axis) against the percentage of product inhibitory activity relative to the control group (y-axis) based on product formation at various compound concentrations. The following data were then fitted using the least squares method with XLfit 5.5.0 for a four-parameter logistic curve fit: [formula] • Y-axis: Percentage of product inhibitory activity relative to the control group; • logIC50: IC50 was determined using XLFit.
(§5) The maximum enzyme activity corresponds to the amount of control product steroid/aldosterone in the absence of inhibitor, set as 100%. The minimum enzyme activity corresponds to the amount of reference control product steroid/aldosterone in the presence of inhibitor. Table 3 Inhibitory Activity of the Compounds of the Present Disclosure on CYP11B2 and CYP11B1

human CYP11B1 enzyme = biological target: T2, human CYP11B1 enzyme (Homo sapiens, UniProt P15538); assay: Enzyme inhibition activity assay in G402 cells stably expressing human CYP11B1 (cortisol production from 11-DC, LC/MS); assay type: cell-based; conditions: 1 µM 11-DC, 16 hours, cortisol detected
T2 construct: the ORF of human CYP11B1 or CYP11B2 were transfected into G402 cells; expressed in transfected cells
T2 sequence (P15538 25-503): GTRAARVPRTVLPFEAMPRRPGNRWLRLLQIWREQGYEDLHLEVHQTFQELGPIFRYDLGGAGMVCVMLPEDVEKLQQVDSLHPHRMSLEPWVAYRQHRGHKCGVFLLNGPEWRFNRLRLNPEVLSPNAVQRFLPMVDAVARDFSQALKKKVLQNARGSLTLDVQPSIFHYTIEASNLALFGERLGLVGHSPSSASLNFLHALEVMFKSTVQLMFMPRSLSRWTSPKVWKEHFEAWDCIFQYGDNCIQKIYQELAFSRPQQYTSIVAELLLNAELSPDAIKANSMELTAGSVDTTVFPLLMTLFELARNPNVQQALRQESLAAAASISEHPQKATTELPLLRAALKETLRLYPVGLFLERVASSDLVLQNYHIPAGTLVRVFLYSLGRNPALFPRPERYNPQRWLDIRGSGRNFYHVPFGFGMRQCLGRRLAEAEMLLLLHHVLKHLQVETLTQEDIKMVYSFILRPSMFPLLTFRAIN
From the text: as §1, §2, §3, §4, §5

SMILES	Cmax [1]	MRT inf [1]	half-life [1]	AUC(0-t) ([1]; read-out: AUC0-24)	pIC50 (human CYP11B2 enzyme)	pIC50 (human CYP11B1 enzyme)
[2H]C([2H])([2H])NC(=O)N[C@@H]1CCCc2c(-c3ccc4c(c3)COC(=O)N4C)cncc21 [Compound A16]	51.7 µM	2.37 h	1.07 h	184 µM·h	8.02	–
CNC(=O)N[C@@H]1CCOc2c(-c3ccc4c(c3)cc(C#N)n4C)cncc21 [Compound A37]	–	–	–	–	8.60	6.51
[2H]C([2H])([2H])NC(=O)N[C@@H]1CCOc2c(-c3ccc4c(c3)cc(C#N)n4C)cncc21 [Compound A38]	–	–	–	–	8.64	6.55
[2H]C([2H])([2H])OC(=O)N[C@@H]1CCOc2c(-c3ccc4c(ccc(=O)n4C)c3)cncc21 [Compound A39]	–	–	–	–	8.00	5.84
[2H]C([2H])([2H])OC(=O)N[C@@H]1CCOc2c(-c3ccc4c(c3)COC(=O)N4C)cncc21 [Compound A40]	–	–	–	–	8.21	6.31
COC(=O)N[C@@H]1CCOc2c(-c3ccc4c(ccc(=O)n4C)c3)cncc21 [Compound A42]	–	–	–	–	7.89	5.77
COC(=O)N[C@@H]1CCOc2c(-c3ccc4c(c3)COC(=O)N4C)cncc21 [Compound A43]	–	–	–	–	8.18	6.24
COC(=O)N[C@@H]1CCCc2c(-c3cc(F)c4c(ccc(=O)n4C)c3)cncc21 [Compound A47]	–	–	–	–	8.16	6.14
[2H]C([2H])([2H])OC(=O)N[C@@H]1CCCc2c(-c3cc(F)c4c(ccc(=O)n4C)c3)cncc21 [Compound A48]	–	–	–	–	8.23	6.15
COC(=O)N[C@@H]1CCOc2c(-c3cc(F)c4c(ccc(=O)n4C)c3)cncc21 [Compound A49]	–	–	–	–	7.83	5.66
COC(=O)N[C@@H]1CCCc2c(-c3cc(Cl)c4c(ccc(=O)n4C)c3)cncc21 [Compound A51]	–	–	–	–	8.36	6.20
[2H]C([2H])([2H])OC(=O)N[C@@H]1CCCc2c(-c3cc(Cl)c4c(ccc(=O)n4C)c3)cncc21 [Compound A52]	–	–	–	–	8.23	6.10
COC(=O)N[C@@H]1CCOc2c(-c3cc(Cl)c4c(ccc(=O)n4C)c3)cncc21 [Compound A53]	–	–	–	–	7.88	5.70
[2H]C([2H])([2H])OC(=O)N[C@@H]1CCOc2c(-c3cc(Cl)c4c(ccc(=O)n4C)c3)cncc21 [Compound A54]	–	–	–	–	7.87	5.78
CCC(=O)N[C@@H]1CCCc2c(-c3ccc4c(ccc(=O)n4C)c3)cncc21 [Compound C04]	–	–	–	–	7.72	5.60
CCC(=O)N[C@@H]1CCCc2c(-c3ccc4c(c3)CNC(=O)N4C)cncc21 [Compound C06]	–	–	–	–	7.51	5.62
CCC(=O)N[C@@H]1CCCc2c(-c3ccc4c(c3)OCC(=O)N4C)cncc21 [Compound C09]	–	–	–	–	7.51	5.41
CCC(=O)N[C@@H]1CCCc2c(-c3ccc4c(c3)CCCC(=O)N4C)cncc21 [Compound C15]	–	–	–	–	7.61	5.59
CCC(=O)N[C@@H]1CCCc2c(-c3ccc4c(c3)cc(C#N)n4C)cncc21 [Compound C36]	–	–	–	–	8.85	6.58
CCC(=O)N[C@@H]1CCCc2c(-c3cnc4c(c3)cc(C#N)n4C)cncc21 [Compound C37]	–	–	–	–	7.94	5.77
CCC(=O)N[C@@H]1CCCc2c(-c3cc(Cl)c4c(ccc(=O)n4C)c3)cncc21 [Compound C42]	–	–	–	–	7.95	5.39
COCC(=O)N[C@@H]1CCCc2c(-c3ccc4c(c3)CCC(=O)N4C)cncc21 [Compound D06]	–	–	–	–	8.09	6.54
C[C@H](F)C(=O)N[C@@H]1CCCc2c(-c3ccc4c(c3)CCC(=O)N4C)cncc21 [Compound D07-P2]	–	–	–	–	7.93	5.79
[2H]C([2H])([2H])NC(=O)N[C@@H]1CCCc2c(-c3ccc4c(c3)CCC(=O)N4C)cncc21 [Compound D08]	–	–	–	–	7.96	6.10
CN1CCN([C@@H]2CCCc3c(-c4ccc5c(c4)CCC(=O)N5C)cncc32)C1=O [Compound D10]	–	–	–	–	8.33	6.56
CN(C)C(=O)N[C@@H]1CCCc2c(-c3ccc4c(c3)CCC(=O)N4C)cncc21 [Compound D11]	–	–	–	–	8.13	5.98
CN1C(=O)CCc2cc(-c3cncc4c3CCC[C@H]4N3CCOC3=O)ccc21 [Compound D12]	–	–	–	–	8.14	6.44
[2H]C([2H])([2H])OC(=O)N[C@@H]1CCCc2c(-c3ccc4c(c3)CCC(=O)N4C)cncc21 [Compound D15]	–	–	–	–	8.60	6.89
[2H]C([2H])([2H])N(C(=O)N[C@@H]1CCCc2c(-c3ccc4c(c3)CCC(=O)N4C)cncc21)C([2H])([2H])[2H] [Compound D16]	–	–	–	–	7.71	5.91
